The source of these data is patent US11401278B2, “Macrocyclic indole derivatives” (The Broad Institute, Inc., priority 2017, dated 2022).

Where a name gives a salt, the structure may show the parent alone.

In this assay the target is MCL-1 (Homo sapiens (Human), UniProt Q07820, K194A/K197A/R201A). The assay can be described thus: Protein-protein interaction assay MCL-1/Noxa BH3 peptide (MCL-1 assay, TR-FRET). The note with it: MBP-MCL-1 / Noxa BH3 peptide, median. The assay is classed as binding. The procedure, abridged:
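MBP-fused MCL-1 (aa 173-329, 1 nM) was pre-incubated with compound for 10 min at 22° C, then biotinylated Noxa BH3 peptide (1 nM) was added with anti-MBP-Eu cryptate and streptavidin-XL665. Incubation was 1 h at 22° C, then overnight at 4° C, in Tris pH 7 buffer. The 665/620 nm ratio over 11 concentrations (0.1 nM-20 μM) gave IC50 by 4-parameter fit.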
For orientation: TR-FRET usually uses a lanthanide donor and a delayed reading to cut background.

Chain of MCL-1 (Q07820 whole entry K194A/K197A/R201A, looked up, the tested form may be a part): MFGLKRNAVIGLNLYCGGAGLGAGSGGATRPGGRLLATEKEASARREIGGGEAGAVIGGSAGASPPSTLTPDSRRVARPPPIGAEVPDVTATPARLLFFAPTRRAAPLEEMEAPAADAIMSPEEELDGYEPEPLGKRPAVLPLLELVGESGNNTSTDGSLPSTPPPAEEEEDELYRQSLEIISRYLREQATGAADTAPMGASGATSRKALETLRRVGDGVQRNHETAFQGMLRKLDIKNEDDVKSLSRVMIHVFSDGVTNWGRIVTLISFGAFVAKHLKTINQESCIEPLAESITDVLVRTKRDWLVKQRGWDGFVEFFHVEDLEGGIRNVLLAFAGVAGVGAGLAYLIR

In general, IC50 refers to the point on the concentration scale where inhibition reaches its midpoint. Read a low IC50 as greater potency in that assay. Compound `Cc1c2c(nn1C)C(CCN1CCOCC1)N(C)S(=O)(=O)CCCn1c(C(=O)O)c(CCCOc3cccc4ccccc34)c3cccc-2c31` (single isomer, unassigned; enantiomer 1) [Example 45, 2,3,14-trimethyl-15-[2-(morpholin-4-yl)ethyl]-7-{3-[(naphthalen-1-yl)oxy]propyl}-13,13-dioxo-10,11,12,13,14,15-hexahydro-2H-13lambda^6-pyrazolo[3′,4′:4,5][1,2,8]thiadiazacycloundecino[6,7,8-hi]indole-8-carboxylic acid N-ethylethanamine Salt (Enantiomer 1)] had a half-inhibitory concentration (IC50) of 33 nM.
`Cc1c2c(nn1C)CNS(=O)(=O)CCCn1c(C(=O)O)c(CCCOc3cccc4cc(F)ccc34)c3ccc(Cl)c-2c31` (single isomer, unassigned; enantiomer 1) [Example 51, 4-chloro-7-{3-[(6-fluoronaphthalen-1-yl)oxy]propyl}-2,3-dimethyl-13,13-dioxo-10,11,12,13,14,15-hexahydro-2H-13lambda^6-pyrazolo[3′,4′:4,5][1,2,8]thiadiazacycloundecino[6,7,8-hi]indole-8-carboxylic acid (Enantiomer 1)] displayed an IC50 of 0.96 nM.
The compound `CCc1c2c(nn1C)CN(C1CC1)S(=O)(=O)CCCn1c(C(=O)O)c(CCCOc3cccc4cc(F)ccc34)c3ccc(Cl)c-2c31` (single isomer, unassigned; enantiomer 1) [Example 54, (−)-4-chloro-14-cyclopropyl-3-ethyl-7-{3-[(6-fluoronaphthalen-1-yl)oxy]propyl}-2-methyl-13,13-dioxo-10,11,12,13,14,15-hexahydro-2H-13lambda^6-pyrazolo[3′,4′:4,5][1,2,8]thiadiazacycloundecino[6,7,8-hi]indole-8-carboxylic acid N-ethylethanamine Salt (Enantiomer 1)] returned an IC50 of 0.64 nM.
The compound `CCc1c2c(nn1C)CN(CC)S(=O)(=O)CCCn1c(C(=O)O)c(CCCOc3cccc4cc(F)ccc34)c3ccc(Cl)c-2c31` (single isomer, unassigned; enantiomer 1) [Example 57, (+)-4-chloro-3,14-diethyl-7-{3-[(6-fluoronaphthalen-1-yl)oxy]propyl}-2-methyl-13,13-dioxo-10,11,12,13,14,15-hexahydro-2H-13lambda^6-pyrazolo[3′,4′:4,5][1,2,8]thiadiazacycloundecino[6,7,8-hi]indole-8-carboxylic acid N-ethylethanamine Salt (Enantiomer 1)] showed an IC50 of 0.48 nM.
Compound `CCc1c2c(nn1C)C(CCC1CCOCC1)N(C)S(=O)(=O)CCCn1c(C(=O)O)c(CCCOc3cccc4cc(F)ccc34)c3ccc(Cl)c-2c31` (single isomer, unassigned; enantiomer 1) [Example 61, (+)-4-chloro-3-ethyl-7-{3-[(6-fluoronaphthalen-1-yl)oxy]propyl}-2,14-dimethyl-15-[2-(oxan-4-yl)ethyl]-13,13-dioxo-10,11,12,13,14,15-hexahydro-2H-13lambda^6-pyrazolo[3′,4′:4,5][1,2,8]thiadiazacycloundecino[6,7,8-hi]indole-8-carboxylic acid (Enantiomer 1)] came in with an IC50 of 0.94 nM.
Regarding `Cc1c2c(nn1C)C(CCN1CCOCC1)N(C)S(=O)(=O)CCCn1c(C(=O)O)c(CCCOc3cccc4cc(F)ccc34)c3ccc(Cl)c-2c31` (single isomer, unassigned; enantiomer 1) [Example 66, 4-chloro-7-{3-[(6-fluoronaphthalen-1-yl)oxy]propyl}-2,3,14-trimethyl-15-[2-(morpholin-4-yl)ethyl]-13,13-dioxo-10,11,12,13,14,15-hexahydro-2H-13lambda^6-pyrazolo[3′,4′:4,5][1,2,8]thiadiazacycloundecino[6,7,8-hi]indole-8-carboxylic acid (Enantiomer 1)], the IC50 came to 22 nM.
With `Cc1c2c(nn1C)CN(CCN1CCOCC1)S(=O)(=O)CCCn1c(C(=O)O)c(CCCOc3cccc4ccccc34)c3cccc-2c31` (single isomer, unassigned; enantiomer 2) [Example 3, 2,3-Dimethyl-14-[2-(morpholin-4-yl)ethyl]-7-{3-[(naphthalen-1-yl)oxy]propyl}-13,13-dioxo-10,11,12,13,14,15-hexahydro-2H-13λ^6-pyrazolo[3′,4′:4,5][1,2,8]thiadiazacycloundecino-[6,7,8-hi]indole-8-carboxylic acid-N-ethylethanamine salt (Enantiomer 2)] the figure was 270 nM.
`Cc1c2c(nn1C)CN(C)S(=O)(=O)CCCn1c(C(=O)O)c(CCCOc3cccc4ccccc34)c3ccc(Cl)c-2c31` (single isomer, unassigned; enantiomer 2) [Example 6, 4-Chloro-2,3,14-trimethyl-7-{3-[(naphthalen-1-yl)oxy]propyl}-13,13-dioxo-10,11,12,13,14,15-hexahydro-2H-13λ^6-pyrazolo[3′,4′:4,5][1,2,8]thiadiazacycloundecino[6,7,8-hi]indole-8-carboxylic acid-N-ethylethanamine salt (Enantiomer 2)] gave an IC50 of 11 nM.
With `CCc1c2c(nn1C)CN(C)S(=O)(=O)CCCn1c(C(=O)O)c(CCCOc3cccc4cc(F)ccc34)c3ccc(F)c-2c31` (single isomer, unassigned; enantiomer 2) [Example 9, (−)-3-Ethyl-4-fluoro-7-{3-[(6-fluoronaphthalen-1-yl)oxy]propyl}-2,14-dimethyl-13,13-dioxo-10,11,12,13,14,15-hexahydro-2H-13λ^6-pyrazolo[3′,4′:4,5][1,2,8]thiadiazacycloundecino-[6,7,8-hi]indole-8-carboxylic acid (Enantiomer 2)] the figure was 34 nM; with `CCc1c2c(nn1C)CN(C)S(=O)(=O)CCCn1c(C(=O)O)c(CCCOc3cccc4cc(F)ccc34)c3ccc(Cl)c-2c31` (single isomer, unassigned; enantiomer 2) [Example 37, (−)-4-chloro-3-ethyl-7-{3-[(6-fluoronaphthalen-1-yl)oxy]propyl}-2,14-dimethyl-13,13-dioxo-10,11,12,13,14,15-hexahydro-2H-13lambda^6-pyrazolo[3′,4′:4,5][1,2,8]thiadiazacycloundecino-[6,7,8-hi]indole-8-carboxylic acid (Enantiomer 2)], 11 nM.
As to `Cc1c2c(nn1C)CN(C)S(=O)(=O)CCCn1c(C(=O)O)c(CCCOc3cccc4cc(F)ccc34)c3ccc(F)c-2c31` (single isomer, unassigned; enantiomer 2) [Example 39, (+)-4-fluoro-7-{3-[(6-fluoronaphthalen-1-yl)oxy]propyl}-2,3,14-trimethyl-13,13-dioxo-10,11,12,13,14,15-hexahydro-2H-13lambda^6-pyrazolo[3′,4′:4,5][1,2,8]thiadiazacycloundecino-[6,7,8-hi]indole-8-carboxylic acid (Enantiomer 2)], the IC50 was found to be 0.89 nM.
On to `Cc1c2c(nn1C)CN(C1CC1)S(=O)(=O)CCCn1c(C(=O)O)c(CCCOc3cccc4cc(F)ccc34)c3ccc(Cl)c-2c31` (single isomer, unassigned; enantiomer 2) [Example 43, (+)-4-chloro-14-cyclopropyl-7-{3-[(6-fluoro-1-naphthyl)oxy]propyl}-2,3-dimethyl-11,12,14,15-tetrahydro-2H,10H-pyrazolo[3′,4′:4,5][1,2,8]thiadiazacycloundecino[6,7,8-hi]indole-8-carboxylic acid 13,13-dioxide N-diethylamine salt (Enantiomer 2)], for which the IC50 amounted to 6.2 nM.
The compound `Cc1c2c(nn1C)C(CCN1CCOCC1)N(C)S(=O)(=O)CCCn1c(C(=O)O)c(CCCOc3cccc4ccccc34)c3cccc-2c31` (single isomer, unassigned; enantiomer 2) [Example 46, 2,3,14-trimethyl-15-[2-(morpholin-4-yl)ethyl]-7-{3-[(naphthalen-1-yl)oxy]propyl}-13,13-dioxo-10,11,12,13,14,15-hexahydro-2H-13lambda^6-pyrazolo[3′,4′:4,5][1,2,8]thiadiazacycloundecino[6,7,8-hi]indole-8-carboxylic acid N-ethylethanamine Salt (Enantiomer 2)] registered an IC50 of 0.31 nM.
With `Cc1c2c(nn1C)CNS(=O)(=O)CCCn1c(C(=O)O)c(CCCOc3cccc4cc(F)ccc34)c3ccc(Cl)c-2c31` (single isomer, unassigned; enantiomer 2) [Example 52, 4-chloro-7-{3-[(6-fluoronaphthalen-1-yl)oxy]propyl}-2,3-dimethyl-13,13-dioxo-10,11,12,13,14,15-hexahydro-2H-13lambda^6-pyrazolo[3′,4′:4,5][1,2,8]thiadiazacycloundecino[6,7,8-hi]indole-8-carboxylic acid (Enantiomer 2)] the figure was 23 nM.
`CCc1c2c(nn1C)C(CCC1CCOCC1)N(C)S(=O)(=O)CCCn1c(C(=O)O)c(CCCOc3cccc4cc(F)ccc34)c3ccc(Cl)c-2c31` (single isomer, unassigned; enantiomer 2) [Example 62, (−)-4-chloro-3-ethyl-7-{3-[(6-fluoronaphthalen-1-yl)oxy]propyl}-2,14-dimethyl-15-[2-(oxan-4-yl)ethyl]-13,13-dioxo-10,11,12,13,14,15-hexahydro-2H-13lambda^6-pyrazolo[3′,4′:4,5][1,2,8]thiadiazacycloundecino[6,7,8-hi]indole-8-carboxylic acid (Enantiomer 2)] had an IC50 of 110 nM.
Regarding `Cc1c2c(nn1C)C(CCN1CCOCC1)N(C)S(=O)(=O)CCCn1c(C(=O)O)c(CCCOc3cccc4cc(F)ccc34)c3ccc(Cl)c-2c31` (single isomer, unassigned; enantiomer 2) [Example 67, 4-chloro-7-{3-[(6-fluoronaphthalen-1-yl)oxy]propyl}-2,3,14-trimethyl-15-[2-(morpholin-4-yl)ethyl]-13,13-dioxo-10,11,12,13,14,15-hexahydro-2H-13lambda^6-pyrazolo[3′,4′:4,5][1,2,8]thiadiazacycloundecino[6,7,8-hi]indole-8-carboxylic acid (Enantiomer 2)], 0.4 nM corresponded to half-maximal inhibition (IC50).
